Experimental data taken from BindingDB's records for doi:10.1016/S0960-894X(01)80179-7 (1994).

Molecular target: Kappa-type opioid receptor (Cavia porcellus, UniProt P41144)
Assay: ChEBML_92409
From the text: Affinity at K opioid receptor on membranes prepared from guinea pig cerebellum by [3H]- 69593 displacement.

Sequence of Kappa-type opioid receptor (P41144 whole entry): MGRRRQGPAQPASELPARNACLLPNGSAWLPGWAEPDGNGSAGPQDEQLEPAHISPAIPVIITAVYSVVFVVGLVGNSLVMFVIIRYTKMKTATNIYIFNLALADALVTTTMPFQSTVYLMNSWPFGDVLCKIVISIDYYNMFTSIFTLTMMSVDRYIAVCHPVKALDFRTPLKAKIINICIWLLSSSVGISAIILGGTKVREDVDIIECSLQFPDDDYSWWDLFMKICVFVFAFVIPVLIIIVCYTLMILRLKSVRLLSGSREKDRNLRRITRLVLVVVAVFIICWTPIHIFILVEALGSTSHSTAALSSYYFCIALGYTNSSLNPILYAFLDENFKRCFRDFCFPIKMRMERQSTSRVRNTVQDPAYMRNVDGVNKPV

Row | Structure (SMILES) | Ki [nM]
1 | CN(C(=O)C1c2ccccc2CCc2ccccc21)[C@H](CN1CC[C@H](O)C1)c1ccccc1 | 20
2 | Cc1ccc(C(C(=O)N(C)[C@H](CN2CC[C@H](O)C2)c2ccccc2)c2ccc(C)cc2)cc1 | 20
3 | CN(C(=O)C(c1ccccc1)c1ccccc1)[C@H](CN1CC[C@H](O)C1)c1cccc([N+](=O)[O-])c1 | 20
